Source: patent publication US7732425B2, “Pharmaceutical composition for ophthalmic use” (Kabushiki Kaisha Hayashibara Seibutsu Kagaku Kenkyujo, priority 2000, dated 2010)

System: ophthalmologic clinical symptoms and signs of Sjögren syndrome
Assay: Therapeutic experiment with α,α-trehalose eye drops in patients diagnosed with Sjögren syndrome
Format: in vivo, human
Excerpt: To confirm the therapeutic effect by trehalose on the ophthalmologic clinical symptoms and signs of Sjögren syndrome, patients consisting of 10 men and 10 women, 22-65 years old (a mean average of 45 years old), who were diagnosed as Sjögren syndrome and had been suffering from clinical symptoms such as foreign body sensation, burning, and itching in their both eyes, were subjected to a therapeutic experiment. In this experiment, a reagent grade of α,α-trehalose with a purity of 99% or higher, commercialized by Hayashibara Biochemical Laboratories, Inc., Okayama, Japan, was dissolved in physiological saline to give a final concentration of 3.5% (w/v) or 7.5% (w/v), and filtered with a 0.22 μm membrane filter to remove bacteria. Then, the filtrate was removed pyrogen in a usual manner for a test preparation. As a control, a similar preparation was provided except for not dissolving α,α-trehalose therein. The 3.5% (w/v) α,α-trehalose solution was administered to one eye for each one of 5-male and 5-female patients, while the physiological saline as a control was administered to the other eye for each one of the patients. The administrations were conducted at four times (getting up, daytime, evening, and before sleeping) a day and at a dose of two to three drops (a volume of about 0.05 to about 0.075 ml) per shot for four weeks. Before and after this experiment, the patients were asked to grade the symptoms of foreign body sensation, burning, and itching in their eyes. Using the 7.5% (w/v) α,α-trehalose solution, a similar experiment was conducted with the remaining male and female patients, five each.

[1] = patients with Sjögren syndrome, 3.5% or 7.5% (w/v) solution, four times a day for four weeks

exacerbation of the ophthalmologic clinical symptoms and signs in the treated eyes (all twenty patients, during and after completion of the four-week experiment): no exacerbation
Structure (SMILES): OC[C@H]1O[C@H](O[C@H]2O[C@H](CO)[C@@H](O)[C@H](O)[C@H]2O)[C@H](O)[C@@H](O)[C@@H]1O [α,α-trehalose]
duration of therapeutic effect after end of administration (after completion of the four-week experiment): lasted for some days even after the completion of this experiment
improvement or remission of the subjective ophthalmic symptoms of foreign body sensation, burning, and itching (patients with Sjögren syndrome, 3.5% (w/v) or 7.5% (w/v) solution in physiological saline, one eye, 2-3 drops four times a day for four weeks, other eye saline control): nine out of ten patients
corneal and conjunctival erosions stained by fluorescein and rose bengal (objective sign) [1]: reduced in all the ten patients
tear film break-up time (objective sign) [1]: improved in nine out of ten patients
